According to PubChem BioAssay (NCI):
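96-well plates; 48 h exposure; 5 concentrations. Endpoints by linear interpolation between flanking doses. Not reached: highest tested concentration assigned. TGI marks complete inhibition of growth.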

Key:
Test in all cases: NCI tumour cell line growth inhibition, 48 h
OVCAR-4 ovarian = system: OVCAR-4 ovarian
M14 melanoma = system: M14 melanoma
OVCAR-3 ovarian = system: OVCAR-3 ovarian
KM12 colon = system: KM12 colon
PC-3 prostate = system: PC-3 prostate
NCI-H522 lung = system: NCI-H522 lung
NCI-H226 lung = system: NCI-H226 lung
NCI/ADR-RES ovarian = system: NCI/ADR-RES ovarian
EKVX NSCLC = system: EKVX NSCLC
DU-145 prostate = system: DU-145 prostate
IGROV1 ovarian = system: IGROV1 ovarian
HCC-2998 colon = system: HCC-2998 colon
HCT-15 colon = system: HCT-15 colon
SK-MEL-5 melanoma = system: SK-MEL-5 melanoma
TK-10 renal = system: TK-10 renal
SF-295 CNS = system: SF-295 CNS
OVCAR-8 ovarian = system: OVCAR-8 ovarian
K-562 leukemia = system: K-562 leukemia
A549 NSCLC = system: A549 NSCLC
MDA-N = system: MDA-N
SW-620 colon = system: SW-620 colon
NCI-H23 lung = system: NCI-H23 lung
UACC-257 melanoma = system: UACC-257 melanoma
MDA-MB-435 = system: MDA-MB-435
SNB-19 CNS = system: SNB-19 CNS
SK-MEL-2 melanoma = system: SK-MEL-2 melanoma
NCI-H460 lung = system: NCI-H460 lung
MOLT-4 leukemia = system: MOLT-4 leukemia
786-0 renal = system: 786-0 renal
RXF 393 renal = system: RXF 393 renal
BT-549 breast = system: BT-549 breast
LOX IMVI melanoma = system: LOX IMVI melanoma
HCT-116 colon = system: HCT-116 colon
U251 CNS = system: U251 CNS
HOP-92 NSCLC = system: HOP-92 NSCLC
HS 578T breast = system: HS 578T breast
SF-268 CNS = system: SF-268 CNS
UACC-62 melanoma = system: UACC-62 melanoma
HOP-62 NSCLC = system: HOP-62 NSCLC
OVCAR-5 ovarian = system: OVCAR-5 ovarian
MALME-3M melanoma = system: MALME-3M melanoma
HT29 colon = system: HT29 colon
SN12C renal = system: SN12C renal
UO-31 renal = system: UO-31 renal
ACHN renal = system: ACHN renal
SK-MEL-28 melanoma = system: SK-MEL-28 melanoma
CAKI-1 renal = system: CAKI-1 renal
MDA-MB-231 breast = system: MDA-MB-231 breast
A498 renal = system: A498 renal
SR leukemia = system: SR leukemia
CCRF-CEM leukemia = system: CCRF-CEM leukemia
SNB-75 CNS = system: SNB-75 CNS
RPMI-8226 leukemia = system: RPMI-8226 leukemia
COLO 205 colon = system: COLO 205 colon
HL-60(TB) leukemia = system: HL-60(TB) leukemia
T-47D breast = system: T-47D breast
SK-OV-3 ovarian = system: SK-OV-3 ovarian
MCF7 breast = system: MCF7 breast

Question: Which results are given for `O=c1[nH]c(=S)c2[nH]c(=O)n(-c3ccccc3)c2[nH]1`?
Answer: TGI (OVCAR-4 ovarian): > 100 µM; TGI (M14 melanoma): > 100 µM; TGI (OVCAR-3 ovarian): > 100 µM; TGI (KM12 colon): > 100 µM; TGI (PC-3 prostate): > 100000 nM; TGI (NCI-H522 lung): > 100 µM; TGI (NCI-H226 lung): > 100 µM; TGI (NCI/ADR-RES ovarian): > 100 µM; TGI (EKVX NSCLC): > 100 µM; TGI (DU-145 prostate): > 100 µM; TGI (IGROV1 ovarian): > 100000 nM; TGI (HCC-2998 colon): > 100000 nM; TGI (HCT-15 colon): > 100000 nM; TGI (SK-MEL-5 melanoma): > 100000 nM; TGI (TK-10 renal): > 100 µM; TGI (SF-295 CNS): > 100 µM; TGI (OVCAR-8 ovarian): > 100 µM; TGI (K-562 leukemia): > 100 µM; TGI (A549 NSCLC): > 100 µM; TGI (MDA-N): > 100000 nM; TGI (SW-620 colon): > 100000 nM; TGI (NCI-H23 lung): > 100 µM; TGI (UACC-257 melanoma): > 100 µM; TGI (MDA-MB-435): > 100 µM; TGI (SNB-19 CNS): > 100 µM; TGI (SK-MEL-2 melanoma): > 100 µM; TGI (NCI-H460 lung): > 100 µM; TGI (MOLT-4 leukemia): > 100000 nM; TGI (786-0 renal): > 100000 nM; TGI (RXF 393 renal): > 100000 nM; TGI (BT-549 breast): > 100 µM; TGI (LOX IMVI melanoma): > 100 µM; TGI (HCT-116 colon): > 100 µM; TGI (U251 CNS): > 100 µM; TGI (HOP-92 NSCLC): > 100 µM; TGI (HS 578T breast): > 100 µM; TGI (SF-268 CNS): > 100 µM; TGI (UACC-62 melanoma): > 100 µM; TGI (HOP-62 NSCLC): > 100 µM; TGI (OVCAR-5 ovarian): > 100 µM; TGI (MALME-3M melanoma): > 100 µM; TGI (HT29 colon): > 100 µM; TGI (SN12C renal): > 100 µM; TGI (UO-31 renal): > 100 µM; TGI (ACHN renal): > 100 µM; TGI (SK-MEL-28 melanoma): > 100000 nM; TGI (CAKI-1 renal): > 100 µM; TGI (MDA-MB-231 breast): > 100 µM; TGI (A498 renal): > 100 µM; TGI (SR leukemia): > 100000 nM

Question: What does the source list for `CC(=O)OC[C@]12CCC3[C@@]4(C)CCCC(C)(C)C4CC[C@@]3(C)C1CC(C1=CC(=O)OC1O)O2` (stereo partly drawn)?
Answer: TGI (CCRF-CEM leukemia): 982 nM; TGI (M14 melanoma): 3.07 µM; TGI (SNB-75 CNS): 3.91 µM; TGI (KM12 colon): 3.62 µM; TGI (PC-3 prostate): 2680 nM; TGI (EKVX NSCLC): 6.51 µM; TGI (RPMI-8226 leukemia): 761 nM; TGI (IGROV1 ovarian): 2950 nM; TGI (HCC-2998 colon): 2830 nM; TGI (HCT-15 colon): 1980 nM; TGI (SK-MEL-5 melanoma): 2850 nM; TGI (TK-10 renal): 3.2 µM; TGI (OVCAR-8 ovarian): 3.52 µM; TGI (K-562 leukemia): 9.56 µM; TGI (A549 NSCLC): 5.05 µM; TGI (MDA-N): 2420 nM; TGI (SW-620 colon): 1850 nM; TGI (NCI-H23 lung): 3.8 µM; TGI (COLO 205 colon): 5.67 µM; TGI (MOLT-4 leukemia): 633 nM; TGI (786-0 renal): 1830 nM; TGI (RXF 393 renal): 1550 nM; TGI (HL-60(TB) leukemia): 2660 nM; TGI (T-47D breast): 3.79 µM; TGI (SK-OV-3 ovarian): 4.04 µM; TGI (MCF7 breast): 2970 nM; TGI (SF-268 CNS): 4.88 µM; TGI (UACC-62 melanoma): 3.65 µM; TGI (HOP-62 NSCLC): 3.9 µM; TGI (SK-MEL-28 melanoma): 2190 nM; TGI (CAKI-1 renal): 3.11 µM; TGI (MDA-MB-231 breast): 3.12 µM; TGI (SR leukemia): 868 nM
